{"source": "patent US5153353A", "about": "“p-Oxybenzoic acid derivatives, process for the preparation thereof and use thereof as drug” (Klinge Pharma GmbH, priority 1990, dated 1992)", "key": {"[1]": {"test_system": "normolipemic, male Wister rats", "test": "Determination of the hypolipemic effect in rats (serum total cholesterol and triglycerides after oral administration)", "assay_type": "in vivo, rat", "conditions": "three administrations over three days", "description": "1) Determination of the hypolipemic effect in rats\nThe lipid-lowering effect of the test substances was examined in groups each of 10 normolipemic, male Wister rats of 200 to 220 g in weight.\nThe investigations were performed after a 3-week adaption training of the eating habits of the animals. The controlled feeding was carried out daily from 8 a.m. to 10 a.m. The test substances were administered at 11 a.m.\nThe test compounds were absorbed in an aqueous solution of 0.25% agar and 0.84% NaCl and administered orally. After three administrations over a period of three days blood was extracted from the animals.\nThe determination of cholesterol and triglycerides in the serum was made with the aid of the \"Cobas-Bio\" centrifugal analyzer of Hoffmann-La Roche.\na) Cholesterol determination CHOS-PAP method, enzymatic colour test according to J. Siedel et al. (J. Clin. Chem. Clin. Biochem. 19, 838 (1981))\nb) Triglyceride determination Enzymatic cleavage of the triglycerides with the aid of specific lipases with subsequent determination of the liberated glycerol according to T. O. Tiffany et al. (Clin. Chem. 20, 476 (1974))"}, "[2]": {"test_system": "cholesterol biosynthesis in rat liver homogenate", "test": "Determination of the inhibition of cholesterol biosynthesis in rat liver homogenate (14C-acetate incorporation)", "assay_type": "biochemical", "conditions": "compared with the blank value", "description": "2) Determination of the inhibition of cholesterol biosynthesis\n3 g freshly prepared rat liver was homogenized in 6 ml ice-cooled puffer and centrifuged for 20 minutes at 20000×g. The supernatant was separated off and employed for the following determinations.\nTo a mixture of 110 μl supernatant and 300 μl incubation solution 10 μl of the methanolic test substance solution were pipetted and incubated at 37° C. for 20 minutes. Thereafter 10 μl of an ^14 C-acetate solution were added by pipette and incubated for a further 30 minutes. Thereafter, to the mixture 500 μl ethanolic KOH solution were added, further incubation carried out for 60 minutes at 75° C. and thereafter the reaction stopped in an ice bath. To enable a yield correction to be made for the subsequent extraction of the ^14 C-cholesterol formed ^3 H-cholesterol (about 10^-3 μCi) was added thereto by pipetting. In addition, 500 μl of an ethanolic solution of unmarked cholesterol was added. The cholesterol of the mixture was extracted twice with 1 ml petroleum ether in each case, the extract dried and taken up with 0.6 ml of an ethanol/acetone mixture (1/1). The dissolved cholesterol was then precipitated by means of 1.4 ml of a digitonin solution (=7 mg). After 15 h at 0° C. the precipitate was centrifuged off, dissolved with 0.5 ml methanol/glacial acetic acid (33/5) and diluted with 2 ml methanol. The radioactivity of the biosynthetically formed cholesterol was determined in 12 ml scintillation liquid (DIMILUME) by means of a scintillation counter.\nBuffer: 6.8 g KH2 PO4, 0.6 g MgCl2, 0.37 g EDTA, 1.83 g nicotine amide, 51.35 g saccharose and 0.4 g mercaptoethanol were dissolved in distilled water and diluted to 500 ml (PH =7.2).\nIncubation solution: The following were each individually dissolved:\n8.6 mg NAD with 1.3 ml buffer\n10.2 mg NADP with 1.3 ml buffer\n39.6 mg glucose-6-phosphate with 0.65 ml buffer\n31.6 mg glucose-6-phosphate-dehydrogenase (1000 U/0.91 ml) with 0.285 ml buffer\nThese solutions were not mixed until immediately prior to use.\nSolution 1: 250 μCi ^14 C-sodium acetate in 1 ml aqua dest.\nSolution 2: 512.5 mg sodium acetate in 10 ml aqua dest.\nPrior to the test 0.1 ml of the solution 1 and 0.4 ml of the solution 2 were mixed and added to 2 ml aqua dest.\nEthanolic KOH: 10 g KOH were dissolved in 100 ml. ethanol\nMethod: R. E. Dugan et al. (Archives Biochem. Biophys. 152,21 (1972))"}}}
{"smiles": "CC(C)(C)c1ccc(CCC(O)COc2ccc(C(=O)OCC(O)CO)cc2)cc1", "note": "(stereo not drawn) [Compound 1, 4-[4-(4'-tert. butylphenyl)-2-hydoxybutoxy]benzoic acid-2,3-dihydroxypropylester]", "values": [{"measurement": "Percentage change of the total cholesterol (TC) level in the rat serum, X ± SD", "setting": "[1]; 10 mg/kg", "result": "+3.8 ± 16.4%"}, {"measurement": "Percentage change of the triglyceride (TG) level in the rat serum, X ± SD", "setting": "[1]; 10 mg/kg", "result": "-26.2 ± 51.1", "unit": "%"}, {"measurement": "Percentage change of the total cholesterol (TC) level in the rat serum, X ± SD", "setting": "[1]; 30 mg/kg", "result": "-17.1 ± 13.9", "unit": "%"}, {"measurement": "Percentage change of the triglyceride (TG) level in the rat serum, X ± SD", "setting": "[1]; 30 mg/kg", "result": "-28.5 ± 9.0", "unit": "%"}, {"measurement": "Percentage change of the total cholesterol (TC) level in the rat serum, X ± SD", "setting": "[1]; 100 mg/kg", "result": "-44.1 ± 10.8", "unit": "%"}, {"measurement": "Percentage change of the triglyceride (TG) level in the rat serum, X ± SD", "setting": "[1]; 100 mg/kg", "result": "-34.7 ± 8.6", "unit": "%"}, {"measurement": "Percentage inhibition of cholesterol biosynthesis in rat liver homogenate", "setting": "[2]; concentration 1 × 10^-4 Mol/l", "result": 68, "unit": "%"}, {"measurement": "Percentage inhibition of cholesterol biosynthesis in rat liver homogenate", "setting": "[2]; concentration 1 × 10^-5 Mol/l", "result": 34, "unit": "%"}, {"measurement": "Percentage inhibition of cholesterol biosynthesis in rat liver homogenate", "setting": "[2]; concentration 3 × 10^-5 Mol/l", "result": 57, "unit": "%"}, {"measurement": "Percentage inhibition of cholesterol biosynthesis in rat liver homogenate", "setting": "[2]; concentration 3 × 10^-6 Mol/l", "result": 0, "unit": "%"}]}
{"smiles": "CCOC(=O)C(C)(C)Oc1ccc(Cl)cc1", "note": "[CLOFIBRAT, reference compound]", "values": [{"measurement": "Percentage change of the total cholesterol (TC) level in the rat serum, X ± SD", "setting": "[1]; 100 mg/kg", "result": "-14.5 ± 12.0", "unit": "%"}, {"measurement": "Percentage change of the triglyceride (TG) level in the rat serum, X ± SD", "setting": "[1]; 100 mg/kg", "result": "-29.2 ± 19.4", "unit": "%"}]}
{"smiles": "CC(C)(CO)c1ccc(CCC(O)COc2ccc(C(=O)O)cc2)cc1", "note": "(stereo not drawn) [Compound 2]", "values": [{"measurement": "Percentage change of the total cholesterol (TC) level in the rat serum, X ± SD", "setting": "[1]; 100 mg/kg", "result": "-39.7 ± 12.4", "unit": "%"}, {"measurement": "Percentage change of the triglyceride (TG) level in the rat serum, X ± SD", "setting": "[1]; 100 mg/kg", "result": "-1.6 ± 21.4", "unit": "%"}, {"measurement": "Percentage inhibition of cholesterol biosynthesis in rat liver homogenate", "setting": "[2]; concentration 1 × 10^-4 Mol/l", "result": 75, "unit": "%"}, {"measurement": "Percentage inhibition of cholesterol biosynthesis in rat liver homogenate", "setting": "[2]; concentration 1 × 10^-5 Mol/l", "result": 41, "unit": "%"}, {"measurement": "Percentage inhibition of cholesterol biosynthesis in rat liver homogenate", "setting": "[2]; concentration 3 × 10^-5 Mol/l", "result": 65, "unit": "%"}, {"measurement": "Percentage inhibition of cholesterol biosynthesis in rat liver homogenate", "setting": "[2]; concentration 3 × 10^-6 Mol/l", "result": 16, "unit": "%"}]}
{"smiles": "CC(C)(C(=O)O)c1ccc(CCC(O)COc2ccc(C(=O)O)cc2)cc1", "note": "(stereo not drawn) [Compound 3, 4-{4-[4'-(1-carboxy-1-methylethyl)phenyl]-2-hydroxybutoxy}benzoic acid]", "values": [{"measurement": "Percentage change of the total cholesterol (TC) level in the rat serum, X ± SD", "setting": "[1]; 100 mg/kg", "result": "-17.5 ± 6.2", "unit": "%"}, {"measurement": "Percentage change of the triglyceride (TG) level in the rat serum, X ± SD", "setting": "[1]; 100 mg/kg", "result": "-19.4 ± 9.7", "unit": "%"}, {"measurement": "Percentage inhibition of cholesterol biosynthesis in rat liver homogenate", "setting": "[2]; concentration 1 × 10^-4 Mol/l", "result": 70, "unit": "%"}, {"measurement": "Percentage inhibition of cholesterol biosynthesis in rat liver homogenate", "setting": "[2]; concentration 1 × 10^-5 Mol/l", "result": 29, "unit": "%"}, {"measurement": "Percentage inhibition of cholesterol biosynthesis in rat liver homogenate", "setting": "[2]; concentration 3 × 10^-5 Mol/l", "result": 56, "unit": "%"}, {"measurement": "Percentage inhibition of cholesterol biosynthesis in rat liver homogenate", "setting": "[2]; concentration 3 × 10^-6 Mol/l", "result": 14, "unit": "%"}]}
